Values joined by “and” are separate entries in the source; they are usually repeats but may differ in a detail not shown here. Identical values can stand only once.
Tests used:
[1] = system: TPA-stimulated epidermal DNA synthesis in mouse epidermis; test: TPA-induced epidermal DNA synthesis in mouse epidermis, transdermal fluasterone; type: in vivo, CD-1 mice; conditions: 20 h
[2] = system: TPA-stimulated epidermal DNA synthesis in mouse epidermis; test: TPA-induced epidermal DNA synthesis in mouse epidermis, oral fluasterone; type: in vivo, CD-1 mice; conditions: for cpm/μg DNA / μg DNA: Table 4, 20 h, group mean
Protocol: In dose-response experiments the anti-hyperplastic efficacy of fluasterone in TPA-treated mouse epidermis to determine bioavailability following different routes of administration was measured. Mice were treated with a single dose of fluasterone (either orally, subcutaneously, or transdermally) followed by a single application of TPA to the shaved back one hour latter. In case of transdermal administration, fluasterone is applied in a topical formulation to the shaved abdomen to allow for systemic absorption to the back of the animal. Twenty hours after TPA application, the mice are injected with 60 μCi of [3H] thymidine, sacrificed 20 minutes later, and a 2×2 cm2 of skin from the shaved back is excised and processed for the determination of the amount of [3H] thymidine incorporated per unit of epidermal DNA. (Hennings et. al., Cancer Res. 28:543-552, 1968).
Fluasterone suspensions were prepared using sesame oil as vehicle. Micronized fluasterone was obtained from Pharmaceutics International, Inc. Five suspensions were prepared—100 mg/kg (13 mg/mL), 200 mg/kg (26.5 mg/mL), 400 mg/kg (52.4 mg/mL), 800 mg/kg (105.5 mg/mL), and 1200 mg/kg (158.3 mg/mL). The fluasterone for each suspension was weighed, placed into a plastic vial, and the required volume of sesame oil was added to the vial. The fluasterone was suspended in the sesame oil with the use of a Tekmar Tissumizer. Magnetic stirrer bars were added to the various suspensions which were stirred on a magnetic stirrer prior to treatment. Control and TPA groups received sesame oil alone.
Female CD-1 mice were obtained from Charles River Laboratories, Wilmington, Mass. at 35-37 days of age.
The mice were housed three per cage in plastic shoebox cages on Alphacel bedding with 12 hours of alternating light and dark in the CAF Animal Facility. The mice had ad libitum access to Purina 5.015 chow and acidified tap water (pH≦2.6). The mice were shaved, weighed and distributed into groups of three. • Control The mice were treated orally with 0.2 mL of sesame oil. One hour after treatment with sesame oil, the mice were treated topically with 0.2 mL of acetone. • TPA The mice were treated orally with 0.2 mL of sesame oil. […] One hour after treatment with fluasterone, the mice were treated topically with 2 μg of TPA in 0.2 mL of acetone.
The mice were sacrificed 20 hours after treatment by an overdose of CO2. Twenty minutes prior to sacrifice, the mice were injected with 60 μCi of [^3H]thymidine (Amersham). The mice were treated with a depilatory to remove any residual hair. A 2×2 cm^2 piece of skin was excised, placed in ice water for 30 seconds, then in 55° C. water for 30 seconds, then in ice water again for 30 seconds. The epidermis was s raped off using a scalpel and the scrapings were placed into ice cold 0.4N TCA. The scrapings were homogenized using a Tekmar Tissumizer (80% power for 30 seconds). The homogenates were centrifuged for 20 minutes at 3,000×g. The precipitates were washed 3× with 0.2N TCA. The TCA was removed and the precipitates were stored at −20° C. overnight. The next day, the precipitates were washed 2× with absolute ethanol. The DNA in each sample was hydrolyzed with 0.5N TCA for 30 minutes at 90°. The tubes were centrifuged for 20 minutes at 3000×g. A 0.2 mL aliquot of each hydrolysate was counted in a LKB Rackbeta scintillation counter using Scintiverse II BD as the counting medium. DNA content was determined by the Burton diphenylamine assay.
102.7 mg of Micronized fluasterone I was weighed using a Mettler AE-50 balance, transferred to a glass scintillation vial, and homogenized in 6.0 mL of carboxymethylcellulose-Tween 80 using a Tekmar Tissumizer (200 mg/kg micronized I suspension, 200 MI). 88.4 mg of micronized fluasterone II was then weighed, transferred to a glass scintillation vial, and homogenized in 5.2 mL of CMC-Tween using a Tekmar Tissumizer (200 mg/kg micronized II suspension, 200 MII).

[3] = Cremophor EL solution, 5 mg/kg transdermal (abdomen) 1 h before 2 μg TPA (back), single mice, 5 mg/kg
[4] = Cremophor EL:ethanol (50:50 v/v) solution, 1.9 mg/kg transdermal (abdomen) 1 h before 2 μg TPA (back), single mice, 1.9 mg/kg
[5] = Cremophor EL:ethanol (50:50 v/v) solution, 2.5 mg/kg transdermal (abdomen) 1 h before 2 μg TPA (back), single mice, 2.5 mg/kg
[6] = Tween 80:ethanol (50:50 v/v) solution, 1.9 mg/kg transdermal (abdomen) 1 h before 2 μg TPA (back), single mice, 1.9 mg/kg
[7] = carbitol solution, 1.25 mg/kg transdermal (abdomen) 1 h before 2 μg TPA (back), single mice, 1.25 mg/kg
[8] = carbitol solution, 2.5 mg/kg transdermal (abdomen) 1 h before 2 μg TPA (back), single mice, 2.5 mg/kg
[9] = carbitol solution, 5 mg/kg transdermal (abdomen) 1 h before 2 μg TPA (back), single mice, 5 mg/kg
[10] = ethanol:limonene:isopropyl myristate (81:15:4) solution, 1.5 mg/kg transdermal (abdomen) 1 h before 2 μg TPA (back), single mice, 1.5 mg/kg
[11] = ethanol:limonene:isopropyl myristate (81:15:4) solution, 5 mg/kg transdermal (abdomen) 1 h before 2 μg TPA (back), single mice, 5 mg/kg
[12] = micronized suspension in ethanol:water:Tween 80 (76:19:5), 1.5 mg/kg transdermal (abdomen) 1 h before 2 μg TPA (back), single mice and group mean, 1.5 mg/kg
[13] = micronized suspension in ethanol:water:Tween 80 (76:19:5), 1.5 mg/kg transdermal (abdomen) 1 h before 2 μg TPA (back), single mice, 1.5 mg/kg
[14] = micronized suspension in ethanol:water:Tween 80 (76:19:5), 2.5 mg/kg transdermal (abdomen) 1 h before 2 μg TPA (back), single mice, 2.5 mg/kg
[15] = 100 mg/kg p.o. micronized in sesame oil 1 h before 2 μg TPA
[16] = 200 mg/kg p.o. micronized in sesame oil 1 h before 2 μg TPA
[17] = 400 mg/kg p.o. micronized in sesame oil 1 h before 2 μg TPA
[18] = 800 mg/kg p.o. micronized in sesame oil 1 h before 2 μg TPA
[19] = 1200 mg/kg p.o. micronized in sesame oil 1 h before 2 μg TPA

## C[C@]12CCCCC1=CC[C@@H]1[C@@H]2CC[C@]2(C)C(=O)[C@H](F)C[C@@H]12 [Fluasterone, 16α-fluoro-5-androsten-17-one]
[1]; Cremophor EL solution, 1.25 mg/kg transdermal (abdomen) 1 h before 2 μg TPA (back), single mice, 1.25 mg/kg
  μg DNA/0.2 mL: 28.1 μg DNA/0.2 mL and 14.9 μg DNA/0.2 mL
[1]; Cremophor EL solution, 1.9 mg/kg transdermal (abdomen) 1 h before 2 μg TPA (back), single mice and group mean, 1.9 mg/kg
  cpm/μg DNA: 161.0 cpm/μg DNA and 270.3 cpm/μg DNA and 215.7 ± 77.3 cpm/μg DNA
[1]; Cremophor EL solution, 1.9 mg/kg transdermal (abdomen) 1 h before 2 μg TPA (back), single mice, 1.9 mg/kg
  μg DNA/0.2 mL: 15.4 μg DNA/0.2 mL and 20.1 μg DNA/0.2 mL
[1]; Cremophor EL solution, 2.5 mg/kg transdermal (abdomen) 1 h before 2 μg TPA (back), single mice, 2.5 mg/kg
  μg DNA/0.2 mL: 8.6 μg DNA/0.2 mL and 10.1 μg DNA/0.2 mL
[1]; [3]
  cpm: 1,015 cpm and 1,686 cpm
  μg DNA/0.2 mL: 8.4 μg DNA/0.2 mL and 11.2 μg DNA/0.2 mL
[1]; Cremophor EL:ethanol (50:50 v/v) solution, 1.9 mg/kg transdermal (abdomen) 1 h before 2 μg TPA (back), single mice and group mean, 1.9 mg/kg
  cpm/μg DNA: 207.8 cpm/μg DNA and 160.4 cpm/μg DNA
[1]; [4]
  corrected cpm: 5,965 cpm and 4,025 cpm
  cpm: 5,990 cpm and 4,050 cpm
  μg DNA/0.2: 28.7 μg DNA/0.2 and 25.1 μg DNA/0.2
[1]; Cremophor EL:ethanol (50:50 v/v) solution, 2.5 mg/kg transdermal (abdomen) 1 h before 2 μg TPA (back), single mice and group mean, 2.5 mg/kg
  cpm/μg DNA: 423.2 cpm/μg DNA and 410.7 cpm/μg DNA and 462.8 cpm/μg DNA
[1]; [5]
  corrected cpm: 7,068 cpm and 6,243 cpm and 6,341 cpm
  cpm: 7,093 cpm and 6,268 cpm and 6,366 cpm
  μg DNA/0.2: 16.7 μg DNA/0.2 and 15.2 μg DNA/0.2 and 13.7 μg DNA/0.2
[1]; Cremophor EL:ethanol (50:50 v/v) solution, 5 mg/kg transdermal (abdomen) 1 h before 2 μg TPA (back), single mice and group mean, 5 mg/kg
  cpm/μg DNA: 125.1 cpm/μg DNA and 222.9 cpm/μg DNA and 206.4 cpm/μg DNA
[1]; Cremophor EL:ethanol (50:50 v/v) solution, 5 mg/kg transdermal (abdomen) 1 h before 2 μg TPA (back), single mice, 5 mg/kg
  μg DNA/0.2: 15.0 μg DNA/0.2 and 14.0 μg DNA/0.2 and 13.3 μg DNA/0.2
[1]; Tween 80:ethanol (50:50 v/v) solution, 1.9 mg/kg transdermal (abdomen) 1 h before 2 μg TPA (back), single mice and group mean, 1.9 mg/kg
  cpm/μg DNA: 216.3 cpm/μg DNA and 189.8 cpm/μg DNA
[1]; [6]
  corrected cpm: 3,114 cpm and 3,150 cpm
  cpm: 3,139 cpm and 3,175 cpm
  μg DNA/0.2: 14.4 μg DNA/0.2 and 16.6 μg DNA/0.2
[1]; carbitol solution, 1.25 mg/kg transdermal (abdomen) 1 h before 2 μg TPA (back), single mice and group mean, 1.25 mg/kg
  cpm/μg DNA: 270.1 cpm/μg DNA and 341.3 cpm/μg DNA and 287.9 ± 25.2 cpm/μg DNA
[1]; [7]
  corrected cpm: 6,051 cpm and 10,170 cpm
  cpm: 6,086 cpm and 10,205 cpm
  μg DNA/0.2 mL: 22.4 μg DNA/0.2 mL and 29.8 μg DNA/0.2 mL
[1]; carbitol solution, 1.9 mg/kg transdermal (abdomen) 1 h before 2 μg TPA (back), single mice, 1.9 mg/kg
  μg DNA/0.2 mL: 18.4 μg DNA/0.2 mL and 11.8 μg DNA/0.2 mL
[1]; carbitol solution, 2.5 mg/kg transdermal (abdomen) 1 h before 2 μg TPA (back), single mice and group mean, 2.5 mg/kg
  cpm/μg DNA: 64.8 cpm/μg DNA and 73.8 cpm/μg DNA and 69.3 ± 6.3 cpm/μg DNA
[1]; [8]
  corrected cpm: 616 cpm and 649 cpm
  cpm: 651 cpm and 684 cpm
  μg DNA/0.2 mL: 9.5 μg DNA/0.2 mL and 8.8 μg DNA/0.2 mL
[1]; [9]
  corrected cpm: 5,338 cpm and 5,045 cpm
  cpm: 5,373 cpm and 5,080 cpm
  μg DNA/0.2 mL: 10.0 μg DNA/0.2 mL and 10.8 μg DNA/0.2 mL
[1]; ethanol:limonene:isopropyl myristate (81:15:4) solution, 1.5 mg/kg transdermal (abdomen) 1 h before 2 μg TPA (back), single mice and group mean, 1.5 mg/kg
  μg DNA/0.2 mL: 25.8 μg DNA/0.2 mL and 25.1 μg DNA/0.2 mL
[1]; [10]
  corrected cpm: 5,854 cpm and 3,703 cpm
  cpm: 5,883 cpm and 3,732 cpm
[1]; ethanol:limonene:isopropyl myristate (81:15:4) solution, 2.5 mg/kg transdermal (abdomen) 1 h before 2 μg TPA (back), single mice and group mean (p < 0.05 vs TPA), 2.5 mg/kg
  μg DNA/0.2 mL: 18.1 μg DNA/0.2 mL and 15.3 μg DNA/0.2 mL
[1]; ethanol:limonene:isopropyl myristate (81:15:4) solution, 5 mg/kg transdermal (abdomen) 1 h before 2 μg TPA (back), single mice and group mean (p < 0.05 vs TPA), 5 mg/kg
  μg DNA/0.2 mL: 15.9 μg DNA/0.2 mL and 17.3 μg DNA/0.2 mL
[1]; ethanol:limonene:isopropyl myristate (81:15:4) solution, 5 mg/kg transdermal (abdomen) 1 h before 2 μg TPA (back), single mice and group mean, 5 mg/kg
  cpm/μg DNA: 532.5 cpm/μg DNA and 603.2 cpm/μg DNA
[1]; [11]
  corrected cpm: 8,467 cpm and 10,436 cpm
  cpm: 8,496 cpm and 10,465 cpm
[1]; [12]
  cpm/μg DNA: 135.7 cpm/μg DNA and 98.9 cpm/μg DNA
  μg DNA/0.2 mL: 34.3 μg DNA/0.2 mL and 35.2 μg DNA/0.2 mL
[1]; [13]
  corrected cpm: 4,655 cpm and 3,481 cpm
  cpm: 4,684 cpm and 3,510 cpm
[1]; micronized suspension in ethanol:water:Tween 80 (76:19:5), 2.5 mg/kg transdermal (abdomen) 1 h before 2 μg TPA (back), single mice and group mean (p < 0.02 vs TPA), 2.5 mg/kg
  μg DNA/0.2 mL: 19.6 μg DNA/0.2 mL and 16.6 μg DNA/0.2 mL
[1]; micronized suspension in ethanol:water:Tween 80 (76:19:5), 2.5 mg/kg transdermal (abdomen) 1 h before 2 μg TPA (back), single mice and group mean, 2.5 mg/kg
  cpm/μg DNA: 109.5 cpm/μg DNA and 139.0 cpm/μg DNA
[1]; [14]
  corrected cpm: 2,147 cpm and 2,308 cpm
  cpm: 2,176 cpm and 2,337 cpm
[1]; micronized suspension in ethanol:water:Tween 80 (76:19:5), 5 mg/kg transdermal (abdomen) 1 h before 2 μg TPA (back), single mice and group mean (p < 0.01 vs TPA), 5 mg/kg
  μg DNA/0.2 mL: 16.5 μg DNA/0.2 mL and 18.9 μg DNA/0.2 mL
[2]; [15]
  cpm/μg DNA: 539.8 ± 75.9 cpm/μg DNA
  μg DNA: 15.5 ± 3.0 µg
[2]; [16]
  cpm/μg DNA: 185.0 ± 38.2 cpm/μg DNA
  μg DNA: 6.0 ± 1.9 µg
[2]; [17]
  cpm/μg DNA: 208.8 ± 144.2 cpm/μg DNA
  μg DNA: 6.6 ± 2.6 µg
[2]; [18]
  cpm/μg DNA: 634.3 ± 151.6 cpm/μg DNA
  μg DNA: 6.2 ± 1.0 µg
[2]; [19]
  cpm/μg DNA: 850.0 ± 256.0 cpm/μg DNA
  μg DNA: 6.3 ± 1.5 µg
[2]; mouse skin, single oral dose
  lowest effective oral dose which abolishes TPA-stimulated epidermal hyperplasia ([3H]thymidine incorporation and epidermal DNA content): 200 mg/kg

Source: patent US9408856B2, “Topical steroidal formulations” (Temple University—Of The Commonwealth System of Higher …, priority 2008, dated 2016)
